Data on 39 compounds can be found in patent US8309730B2, “Nonsteroidal compounds useful as modulators of glucocorticoid receptor AP-1 and/or NF-kappab acitivity and use thereof” (Bristol-Myers Squibb Company, priority 2007, dated 2012).

As usually defined, the Ki is the dissociation constant of the complex between target and ligand, obtained from inhibition or displacement. One may read the EC50 as the concentration needed to bring the measured effect to its halfway point.

In the first assay the target is T1, human glucocorticoid receptor (Homo sapiens, UniProt P04150).
T1 construct: purified human recombinant full-length glucocorticoid receptor (2 nM); purchased Invitrogen Part #2893
T1 sequence (P04150 1-777): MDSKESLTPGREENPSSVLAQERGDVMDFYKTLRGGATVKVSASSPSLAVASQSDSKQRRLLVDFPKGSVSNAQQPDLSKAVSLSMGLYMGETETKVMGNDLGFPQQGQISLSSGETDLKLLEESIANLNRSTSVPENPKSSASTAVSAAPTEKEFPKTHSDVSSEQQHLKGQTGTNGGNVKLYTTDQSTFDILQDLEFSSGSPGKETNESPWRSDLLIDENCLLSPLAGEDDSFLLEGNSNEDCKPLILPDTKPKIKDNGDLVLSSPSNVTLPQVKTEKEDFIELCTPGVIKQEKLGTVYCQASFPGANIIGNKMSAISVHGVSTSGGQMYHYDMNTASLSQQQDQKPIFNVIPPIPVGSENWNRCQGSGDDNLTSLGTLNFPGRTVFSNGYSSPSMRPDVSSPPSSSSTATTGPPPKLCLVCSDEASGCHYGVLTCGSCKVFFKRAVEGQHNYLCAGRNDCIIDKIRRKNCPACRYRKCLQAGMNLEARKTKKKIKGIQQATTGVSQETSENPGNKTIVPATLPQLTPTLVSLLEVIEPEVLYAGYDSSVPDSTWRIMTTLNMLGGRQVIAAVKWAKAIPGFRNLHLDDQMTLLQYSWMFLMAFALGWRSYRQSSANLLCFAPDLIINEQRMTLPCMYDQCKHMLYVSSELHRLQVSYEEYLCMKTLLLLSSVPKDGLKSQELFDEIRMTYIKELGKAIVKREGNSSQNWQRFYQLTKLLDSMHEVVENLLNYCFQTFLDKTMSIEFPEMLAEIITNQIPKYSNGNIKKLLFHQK
Nature of the assay: Glucocorticoid Receptor Binding Assay (I), fluorescence polarization competitor kit. Particulars: purified human recombinant full-length GR, Fluormone GS Red, 2 h room temperature. As to the method:
Briefly, purified human recombinant full-length glucocorticoid receptor (2 nM) was mixed with fluorescently labeled glucocorticoid (1 nM Fluormone GS Red) in the presence or absence of test compound. After two hours incubation at room temperature in the dark, the fluorescence polarization (FP) of the sample was measured. […] Test compounds were analyzed in the concentration range from 8.5E-05 μM to 5 μM.
For orientation: Fluorescence polarisation rises when a labelled molecule tumbles more slowly, as on binding a larger partner.
Consider `C[C@]12Cn3cnc(-c4ccccc4)c3C=C1CCC[C@@H]2[C@H](O)c1ccccc1` (racemic) [Example 12], for which the inhibitory constant (Ki) was 86.3 nM. Turning to `COc1ccc([C@H](O)[C@H]2CCCC3=Cc4c(-c5ccccc5)ncn4C[C@@]32C)cc1` (racemic) [Example 16], the Ki stood at 90.1 nM.

Turning to `COc1ccc([C@@H](O)[C@H]2CCCC3=Cc4c(-c5ccccc5)ncn4C[C@@]32C)cc1` (racemic) [Example 17], the Ki came to 93.4 nM. Take `C=CC[C@H](O)[C@H]1CCCC2=Cc3c(-c4ccccc4)ncn3C[C@@]21C` (racemic) [Example 18]: the inhibition constant Ki came to 26.9 nM. Take `C=CC[C@@H](O)[C@H]1CCCC2=Cc3c(-c4ccccc4)ncn3C[C@@]21C` (racemic) [Example 19]: the Ki is 22.3 nM. With `C[C@]12Cn3cnc(-c4ccccc4)c3C=C1CCC[C@@H]2[C@@H](O)Cc1ccccc1` (racemic) [Example 20], the Ki was 18.3 nM.

With `C[C@]12Cn3cnc(-c4ccccc4)c3C=C1CCC[C@@H]2[C@@H](O)C1CCCCC1` (racemic) [Example 21], the Ki worked out at 20.2 nM. Regarding `COc1cccc([C@H](O)[C@H]2CCCC3=Cc4c(-c5ccccc5)ncn4C[C@@]32C)c1` (racemic) [Example 22], the Ki was 94.4 nM. The same measure, in the same setting: the figure for `COc1cccc([C@@H](O)[C@H]2CCCC3=Cc4c(-c5ccccc5)ncn4C[C@@]32C)c1` (racemic) [Example 23] is 57.5 nM. On the same count and under the same terms, the figure for `C[C@H](O)[C@H]1CCCC2=Cc3c(-c4ccccc4)ncn3C[C@@]21C` (racemic) [Example 24] is 364 nM. As for `C[C@@H](O)[C@H]1CCCC2=Cc3c(-c4ccccc4)ncn3C[C@@]21C` (racemic) [Example 25], the Ki came out at 202 nM. For `C[C@]12Cn3cnc(-c4ccccc4)c3C=C1CCC[C@@H]2C(=O)c1ccccc1` (racemic) [Example 33], the Ki was above 1150 nM.

For the compound `C[C@]12Cn3cnc(-c4ccccc4)c3C=C1CCC[C@@H]2C(=O)c1csc2ccccc12` (racemic) [Example 34], the Ki was above 1150 nM. On the same count and under the same terms, the figure for `C[C@]12Cn3cnc(-c4ccccc4)c3C=C1CCC[C@@H]2[C@](C)(O)c1ccccc1` (racemic) [Example 35] is 6.4 nM; for `CC[C@@](O)(c1ccccc1)[C@H]1CCCC2=Cc3c(-c4ccccc4)ncn3C[C@@]21C` (racemic) [Example 36] it is 8.71 nM. The same measure, in the same setting: the figure for `CC[C@@](O)(c1csc2ccccc12)[C@H]1CCCC2=Cc3c(-c4ccccc4)ncn3C[C@@]21C` (racemic) [Example 37] is 209 nM; for `C[C@]12Cn3cnc(-c4ccccc4)c3C=C1CCC[C@@H]2[C@](O)(c1csc2ccccc12)C(F)(F)F` (racemic) [Example 38] it is 111 nM. Turning to `CC12Cn3cnc(-c4ccc(F)cc4)c3C=C1CCCC2(O)CCc1ccccc1` (racemic) [Example 102], the Ki was found to be 19.7 nM. Regarding `CC12Cn3cnc(-c4ccc(F)cc4)c3C=C1CCCC2(O)c1ccc(Cl)cc1` (racemic) [Example 103], the Ki was 216 nM.

`C[C@]12Cn3cnc(-c4ccccc4)c3C=C1CCC[C@@H]2[C@@H](O)c1ccccc1` (single isomer, unassigned) [Example 13]: the Ki was above 1150 nM. Turning to `C[C@]12Cn3cnc(-c4ccccc4)c3C=C1CCC[C@@H]2[C@@H](O)c1ccccc1` (single isomer, unassigned) [Example 14], the Ki amounted to 65 nM. The same measure, in the same setting: the figure for `C[C@]12Cn3cnc(-c4ccccc4)c3C=C1CCC[C@@H]2[C@H](O)c1csc2ccccc12` (single isomer, unassigned) [Example 28] is 493 nM. As to `C[C@]12Cn3cnc(-c4ccccc4)c3C=C1CCC[C@@H]2[C@@H](O)c1csc2ccccc12` (single isomer, unassigned) [Example 30], the Ki turned out to be 22.5 nM. The same measure, in the same setting: then `C[C@]12Cn3cnc(-c4ccccc4)c3C=C1CCC[C@@H]2[C@](C)(O)c1csc2ccccc12` (single isomer, unassigned) [Example 32], with above 1150 nM; and `C[C@]12Cn3cnc(-c4ccc(F)cc4)c3C=C1CCC[C@@H]2C(=O)c1csc2ccccc12` (single isomer, unassigned) [Example 43], with above 1150 nM. Same read-out and setting: then `C[C@]12Cn3cnc(-c4ccc(F)cc4)c3C=C1CCC[C@@H]2C(=O)c1csc2ccccc12` (single isomer, unassigned) [Example 44], with above 1150 nM; and `C[C@]12Cn3cnc(-c4ccc(F)cc4)c3C=C1CCC[C@@H]2[C@](C)(O)c1csc2ccccc12` (single isomer, unassigned) [Example 45], with 73.2 nM. Same read-out and setting: the figure for `C[C@]12Cn3cnc(-c4ccc(F)cc4)c3C=C1CCC[C@@H]2[C@](C)(O)c1csc2ccccc12` (single isomer, unassigned) [Example 46] is 1.43 nM. Turning to `CO[C@](C)(c1cccs1)[C@H]1CCCC2=Cc3c(-c4ccc(F)cc4)ncn3C[C@@]21C` [Example 2, (5aR,6S)-1-(4-Fluorophenyl)-6-((S)-1-methoxy-1-(thiophen-2-yl)ethyl)-5a-methyl-5,5a,6,7,8,9-hexahydroimidazo[1,5-b]isoquinoline], the Ki worked out at 69.8 nM. Take `C[C@]12Cn3cnc(-c4ccc(F)cc4)c3C=C1CCC[C@@H]2CO` [Example 4a, ((5aR,6S)-1-(4-Fluorophenyl)-5a-methyl-5,5a,6,7,8,9-hexahydroimidazo[1,5-b]isoquinolin-6-yl)methanol]: the Ki is 111 nM. On the same count and under the same terms, then `C[C@]12Cn3cnc(-c4ccc(F)cc4)c3C=C1CCC[C@@H]2CNc1nccs1` [Example 4b, N-(((5aR,6S)-1-(4-fluorophenyl)-5a-methyl-5,5a,6,7,8,9-hexahydroimidazo[1,5-b]isoquinolin-6-yl)methyl)thiazol-2-amine], with 215 nM; and `C[C@]12Cn3cnc(-c4ccc(F)cc4)c3C=C1CCC[C@@H]2CC(=O)Nc1nncs1` [Example 6, 2-((5aR,6R)-1-(4-fluorophenyl)-5a-methyl-5,5a,6,7,8,9-hexahydroimidazo[1,5-b]isoquinolin-6-yl)-N-(1,3,4-thiadiazol-2-yl)acetamide], with 7.13 nM; and `CC(C)(C)NC(=O)NCC[C@H]1CCCC2=Cc3c(-c4ccc(F)cc4)ncn3C[C@@]21C` [Example 7, 1-tert-Butyl-3-(2-((5aR,6R)-1-(4-fluorophenyl)-5a-methyl-5,5a,6,7,8,9-hexahydroimidazo[1,5-b]isoquinolin-6-yl)ethyl)urea], with 95.7 nM.

For `C[C@]12Cn3cnc(-c4ccc(F)cc4)c3C=C1CCC[C@@H]2[C@](C)(O)c1cccc(S(C)(=O)=O)c1` [Example 8a, (S)-1-((5aR,6S)-1-(4-fluorophenyl)-5a-methyl-5,5a,6,7,8,9-hexahydroimidazo[1,5-b]isoquinolin-6-yl)-1-(3-(methylsulfonyl)phenyl)ethanol], the Ki is 2.12 nM.

As to `C[C@]12Cn3cnc(-c4ccc(F)cc4)c3C=C1CCC[C@@H]2[C@](C)(O)c1ncccn1` [Example 11, (S)-1-((5aR,6S)-1-(4-Fluorophenyl)-5a-methyl-5,5a,6,7,8,9-hexahydroimidazo[1,5-b]isoquinolin-6-yl)-1-(pyrimidin-2-yl)ethanol], the Ki amounted to 68.2 nM. On to `CC(=O)[C@H]1CCCC2=Cc3c(-c4ccccc4)ncn3C[C@@]21C` [Example 26], for which the Ki is above 1150 nM.

The test system of the next assay is AP-1 induced transcriptional activity. Nature of the assay: Cellular Transrepressional Assay (AP-1 luciferase reporter in A549 cells). It is filed as cell-based. Particulars: Homo sapiens; A549 cells stably transfected with pAP-1-Luc, 10 ng/ml PMA, 7 hours; maximum inhibition; read-out: AP-1 Max % inh (Cellular Transrepression Assay). As to the method:
To measure the ability of test molecules to inhibit AP-1 induced transcriptional activity we utilized an A549 cell which was stably transfected with a plasmid containing 7×AP-1 DNA binding sites (pAP-1-Luc plasmid, Stratagene Co. La Jolla, Calif.) followed by the gene for luciferase. Cells were activated with 10 ng/ml of phorbol myristic acid (PMA) plus or minus test molecules for 7 hours. After 7 hours a luciferase reagent was added to measure luciferase enzymatic activity in the cell. After a 10 minute incubation of luciferase reagent with cells, luminescence was measured in a TopCount luminescence counter. Repression of AP-1 activity was calculated as the percentage decrease in the signal induced by PMA alone. Test molecules were analyzed in the concentration range from 0.1 nM to 40 μM. EC50 values were determined by using standard curve fitting methods such as Excel fit (Microsoft Co.).
(In a reporter assay the amount or activity of a reporter protein is the signal.)
For `C[C@]12Cn3cnc(-c4ccc(F)cc4)c3C=C1CCC[C@@H]2[C@](C)(O)c1ccc(C(=O)O)s1` [Example 99], the Emax came out at 43.9%. Same read-out and setting: the figure for `CNC(=O)c1ccc([C@@](C)(O)[C@H]2CCCC3=Cc4c(-c5ccc(F)cc5)ncn4C[C@@]32C)s1` [Example 100] is 30.7%. On to `CC1(C)COC2(CCCC3=Cc4c(-c5ccc(F)cc5)ncn4CC32C)OC1` (stereo not drawn) [Example 104, 1′-(4-Fluorophenyl)-5,5,5a′-trimethyl-5a′,7′,8′,9′-tetrahydro-5′H-spiro[[1,3]dioxane-2,6′-imidazo[1,5-b]isoquinoline]], for which the Emax turned out to be 32.4%.

The same assay, now with this note: Homo sapiens; A549 cells stably transfected with pAP-1-Luc, 10 ng/ml PMA, 7 hours; read-out: AP-1 EC50, nM (Cellular Transrepression Assay).
As to `C[C@]12Cn3cnc(-c4ccc(F)cc4)c3C=C1CCC[C@@H]2[C@](C)(O)c1ccc(C(=O)O)s1` [Example 99], the EC50 stood at 472 nM. As to `CNC(=O)c1ccc([C@@](C)(O)[C@H]2CCCC3=Cc4c(-c5ccc(F)cc5)ncn4C[C@@]32C)s1` [Example 100], the EC50 is 573 nM. For the compound `CC1(C)COC2(CCCC3=Cc4c(-c5ccc(F)cc5)ncn4CC32C)OC1` (stereo not drawn) [Example 104, 1′-(4-Fluorophenyl)-5,5,5a′-trimethyl-5a′,7′,8′,9′-tetrahydro-5′H-spiro[[1,3]dioxane-2,6′-imidazo[1,5-b]isoquinoline]], the EC50 came to 877 nM.
